From patent US11530186B2, “Inhibitors for the β-catenin / T-cell factor protein-protein interaction” (H. LEE MOFFITT CANCER CENTER AND RESEARCH INSTITUTE, INC., priority 2018, dated 2022)

Legend:
[1] = target: T1, β-catenin/Tcf4 (Homo sapiens, UniProt P35222); test: FP selectivity assay, β-catenin/Tcf assay; assay type: binding; conditions: mean ± SD (n = 3)
T1 construct: Wild-type β-catenin (residues 138-781) were cloned into a pET-28b vector; 6×histidine (C); made in house; host or cells: E. coli BL21 DE3
T1 sequence (P35222 138-781): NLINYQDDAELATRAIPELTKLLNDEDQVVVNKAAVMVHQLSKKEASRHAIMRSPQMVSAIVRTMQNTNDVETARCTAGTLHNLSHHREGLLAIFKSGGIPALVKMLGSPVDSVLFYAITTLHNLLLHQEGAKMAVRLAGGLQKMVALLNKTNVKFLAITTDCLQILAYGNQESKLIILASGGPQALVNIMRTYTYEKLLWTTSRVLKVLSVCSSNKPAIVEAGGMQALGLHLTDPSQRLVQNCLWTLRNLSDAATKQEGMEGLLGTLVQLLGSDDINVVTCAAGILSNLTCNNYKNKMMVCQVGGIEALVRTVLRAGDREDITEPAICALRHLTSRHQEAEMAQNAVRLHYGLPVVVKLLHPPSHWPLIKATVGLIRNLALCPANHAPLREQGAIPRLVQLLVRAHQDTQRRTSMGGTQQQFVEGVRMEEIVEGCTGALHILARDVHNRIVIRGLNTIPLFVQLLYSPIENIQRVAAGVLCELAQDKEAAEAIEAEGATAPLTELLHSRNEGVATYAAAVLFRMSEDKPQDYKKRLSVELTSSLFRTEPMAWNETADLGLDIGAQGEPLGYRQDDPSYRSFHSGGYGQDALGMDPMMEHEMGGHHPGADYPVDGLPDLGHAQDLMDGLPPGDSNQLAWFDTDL
Protocol: FP Selectivity Assays. Experiments were performed in 96-well Microfluor 2 black plates on a Synergy 2 plate reader (Biotek). The polarization was measured at room temperature with an excitation wavelength at 485 nm and an emission wavelength at 535 nm. The FP experiments were performed in an assay buffer of 25 mM Hepes (pH 7.4), 100 mM NaCl, 0.01% Triton X-100, and 100 μg/ml γ-globulin. The final reaction volume was set to 100 μL. For the β-catenin/Tcf assay, 10 nM human β-catenin (residues 138-781) was incubated with 2.5 nM C-terminally fluorescein-labeled human Tcf4 (residues 7-51) for 30 min at 4° C., and then different concentrations of the compound in assay buffer were added. […] The negative control refers to 5 nM E-cadherin fluorescence tracer and 150 nM β-catenin in assay buffer with no inhibitor presenting. The positive control refers to 5 nM E-cadherin fluorescence tracer in assay buffer. […] The negative control refers to 5 nM APC-R3 fluorescence tracer and 2,000 nM β-catenin in assay buffer without the tested compound. The positive control refers to 5 nM APC-R3 fluorescence tracer in assay buffer. Each assay plate was covered black and gently mixed on an orbital shaker at 4° C. for 2.5 h to reach equilibrium before the polarization values were read. […] The IC50 values were determined by GraphPad Prism 5.0. […] The results were expressed as mean±standard deviation. […]

[2] = target: T2, β-catenin/APC-R3 (Homo sapiens, UniProt P35222); test: FP selectivity assay, β-catenin/APC-R3 assay; assay type: binding
T2 construct: 2000 nM human β-catenin (residues 138-781); 6×histidine (C); made in house; host or cells: E. coli BL21 DE3
T2 sequence (P35222 138-781): T1 sequence (P35222 138-781)
Protocol: FP Selectivity Assays. Experiments were performed in 96-well Microfluor 2 black plates on a Synergy 2 plate reader (Biotek). The polarization was measured at room temperature with an excitation wavelength at 485 nm and an emission wavelength at 535 nm. The FP experiments were performed in an assay buffer of 25 mM Hepes (pH 7.4), 100 mM NaCl, 0.01% Triton X-100, and 100 μg/ml γ-globulin. The final reaction volume was set to 100 μL. For the β-catenin/Tcf assay, 10 nM human β-catenin (residues 138-781) was incubated with 2.5 nM C-terminally fluorescein-labeled human Tcf4 (residues 7-51) for 30 min at 4° C., and then different concentrations of the compound in assay buffer were added. […] For the β-catenin/cadherin assay, 150 nM human β-catenin (residues 138-781) was incubated with 5 nM C-terminally fluorescent-labeled human E-cadherin (residues 819-873) in assay buffer for 30 min at 4° C. The negative control refers to 5 nM E-cadherin fluorescence tracer and 150 nM β-catenin in assay buffer with no inhibitor presenting. The positive control refers to 5 nM E-cadherin fluorescence tracer in assay buffer. […] The negative control refers to 5 nM APC-R3 fluorescence tracer and 2,000 nM β-catenin in assay buffer without the tested compound. The positive control refers to 5 nM APC-R3 fluorescence tracer in assay buffer. Each assay plate was covered black and gently mixed on an orbital shaker at 4° C. for 2.5 h to reach equilibrium before the polarization values were read. […] The IC50 values were determined by GraphPad Prism 5.0. […] The results were expressed as mean±standard deviation. The Tcf/cahderin selectivity ratio was calculated on the basis of the respective Ki value of the β-catenin/E-cadherin interaction over that of the β-catenin/Tcf4 interaction. The Tcf/APC selectivity ratio was calculated on the basis of the respective Ki value of the β-catenin/APC-R3 interaction over that of the β-catenin/Tcf4 interaction. […]

Question: Which results are given for `O=C(O)c1ccc2c(c1)c(CCc1ccc(Cl)cc1)c(CCc1nc3ccccc3s1)n2CCc1nn[nH]n1` [Compound 27, 1-(2-(2H-tetrazol-5-yl)ethyl)-2-(2-(benzo[d]thiazol-2-yl)ethyl)-3-(4-chlorophenethyl)-1H-indole-5-carboxylic acid]?
Answer: Ki [1]: 0.93 ± 0.51 µM; Ki ([2]; FP selectivity assay, mean ± SD (n = 3)): 74 ± 11 µM; selectivity for β-catenin/Tcf over β-catenin/APC PPI ([2]; FP selectivity assays): 80 fold; Selectivity Tcf/APC ([2]; ratio of Ki β-catenin/APC-R3 over Ki β-catenin/Tcf4): 80
